Data published in ChEMBL document CHEMBL3865849, “Development of N-(4-Phenoxyphenyl)benzenesulfonamide Derivatives as Novel Nonsteroidal Progesterone Receptor Antagonists” (ACS Med Chem Lett, 2016).
Activity calls are given as the source filed them. The rule behind the calls is not given here.

These compounds were tested against T1, Progesterone receptor (Homo sapiens, UniProt P06401) (assay: Antagonist activity at progesterone receptor in human T47D cells incubated for 24 hrs in presence of P4 by alkaline phosphatase assay).
T1 sequence (P06401 whole entry): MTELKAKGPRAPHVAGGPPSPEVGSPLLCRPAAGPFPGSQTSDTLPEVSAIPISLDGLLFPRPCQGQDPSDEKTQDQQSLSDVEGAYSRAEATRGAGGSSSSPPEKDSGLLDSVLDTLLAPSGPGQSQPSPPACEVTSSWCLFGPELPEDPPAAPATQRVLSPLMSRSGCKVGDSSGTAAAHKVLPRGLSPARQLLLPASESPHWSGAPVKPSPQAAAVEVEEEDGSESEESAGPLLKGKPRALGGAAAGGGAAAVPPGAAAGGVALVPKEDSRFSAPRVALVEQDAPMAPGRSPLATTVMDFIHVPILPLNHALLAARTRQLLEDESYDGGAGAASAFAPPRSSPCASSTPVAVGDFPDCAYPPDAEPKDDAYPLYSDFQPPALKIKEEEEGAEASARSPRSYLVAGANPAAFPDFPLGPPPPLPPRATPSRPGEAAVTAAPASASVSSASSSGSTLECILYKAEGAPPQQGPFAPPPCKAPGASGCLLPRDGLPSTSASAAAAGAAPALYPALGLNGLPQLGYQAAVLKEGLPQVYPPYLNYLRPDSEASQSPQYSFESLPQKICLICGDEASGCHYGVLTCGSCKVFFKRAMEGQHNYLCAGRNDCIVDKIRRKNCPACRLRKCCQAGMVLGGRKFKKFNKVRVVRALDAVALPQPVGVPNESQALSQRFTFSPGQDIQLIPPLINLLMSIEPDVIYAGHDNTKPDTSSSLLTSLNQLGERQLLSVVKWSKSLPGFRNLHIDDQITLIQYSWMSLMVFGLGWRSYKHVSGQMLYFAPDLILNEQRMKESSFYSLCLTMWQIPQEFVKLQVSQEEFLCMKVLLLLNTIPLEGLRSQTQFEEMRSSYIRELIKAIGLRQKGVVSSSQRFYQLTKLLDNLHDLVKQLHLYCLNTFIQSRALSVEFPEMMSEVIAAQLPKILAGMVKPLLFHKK
Assay type: cell-based

| SMILES | IC50 [µM] |
| --- | --- |
| CN(c1ccc(Oc2ccccc2)cc1)S(=O)(=O)c1ccc(Cl)cc1 | 0.96 |
| CN(c1ccc(Oc2ccccc2)cc1)S(=O)(=O)c1ccccc1Cl | 0.39 |
| COc1cccc(Oc2ccc(NC(=O)c3ccccc3)cc2)c1 | 3.8 |
| COc1ccc(S(=O)(=O)Nc2ccc(Oc3ccccc3)cc2)cc1 | 0.5 |
| COc1ccc(S(=O)(=O)N(C)c2ccc(Oc3ccccc3)cc2)cc1 | 0.99 |
| O=S(=O)(Nc1ccc(Oc2ccccc2)cc1)c1cc(Cl)c(Cl)cc1Cl | 1.6 |
| COc1cccc(Oc2ccc(NS(=O)(=O)c3cccc(Cl)c3)cc2)c1 | 0.27 |
| COc1ccc(NS(=O)(=O)c2cccc(Cl)c2)cc1 | 0.82 |
| COc1cccc(S(=O)(=O)N(Cc2ccccc2)c2ccc(Oc3ccccc3)cc2)c1 | 2.6 |
| O=S(=O)(Cc1ccccc1)Nc1ccc(Oc2ccccc2)cc1 | 1.6 |
| O=S(=O)(Nc1ccc(Oc2ccccc2)cc1)c1ccccc1 | 0.52 |
| O=S(=O)(Nc1ccc(Br)cc1)c1cccc(Cl)c1 | 1.3 |
| COc1cccc(C(=O)Nc2ccc(Oc3ccc(O)cc3)c(C)c2)c1 | 5 |
| O=S(=O)(Nc1ccc(Oc2ccccc2)cc1)c1ccc2ccccc2c1 | 1.7 |
| O=S(=O)(Nc1ccc(Oc2ccccc2)cc1)c1ccccc1Cl | 0.74 |
| O=C(Nc1ccc(Oc2ccccc2)cc1)c1ccccc1 | 2.8 |
| COc1cccc(Oc2ccc(NS(=O)(=O)c3ccccc3)cc2)c1 | 0.49 |
| O=S(=O)(Nc1ccc(Oc2ccccc2)cc1)c1cc(Cl)cc(Cl)c1 | 0.32 |
| Cc1ccc(NS(=O)(=O)c2cccc(Cl)c2)cc1 | 1.3 |
| O=S(=O)(Nc1ccc(Oc2ccccc2)cc1)c1cccc(Cl)c1 | 0.17 |
| N#Cc1cccc(S(=O)(=O)Nc2ccc(Oc3ccccc3)cc2)c1 | 0.3 |
| O=[N+]([O-])c1cccc(S(=O)(=O)Nc2ccc(Oc3ccccc3)cc2)c1 | 0.14 |
| O=S(=O)(Nc1ccc(Oc2ccccc2)cc1)c1cccc(C(F)(F)F)c1 | 0.033 |
| O=S(=O)(Nc1ccc(Oc2ccccc2)cc1)c1cccc(Br)c1 | 0.11 |

Other lines, results leading:

| IC50 [µM] | SMILES |
| --- | --- |
| 0.22 | O=S(=O)(Nc1ccc(Oc2ccccc2)cc1)c1cccc(F)c1 |
| 0.25 | COc1cccc(S(=O)(=O)Nc2ccc(Oc3ccccc3)cc2)c1 |
| 0.45 | O=S(=O)(Nc1ccc(Cc2ccccc2)cc1)c1cccc(Cl)c1 |
| 3.5 | COc1ccc(S(=O)(=O)N(Cc2ccccc2)c2ccc(Oc3ccccc3)cc2)cc1 |
| 0.47 | COc1cccc(S(=O)(=O)N(C)c2ccc(Oc3ccccc3)cc2)c1 |
| 0.33 | O=S(=O)(Nc1ccc(-c2ccccc2)cc1)c1cccc(Cl)c1 |
| 0.67 | O=S(=O)(Nc1ccc(Oc2ccccc2)cc1)c1ccc(Cl)cc1 |
| 0.81 | O=S(=O)(Nc1ccc(OCc2ccccc2)cc1)c1cccc(Cl)c1 |
| 1.5 | O=S(=O)(Nc1ccccc1)c1cccc(Cl)c1 |
| 0.64 | O=S(=O)(Nc1ccc(Oc2ccccc2)cc1)c1cccc(Cl)c1Cl |
| 0.65 | CN(c1ccc(Oc2ccccc2)cc1)S(=O)(=O)c1cccc(Cl)c1 |
| 3 | O=S(=O)(c1ccc(Cl)cc1)N(Cc1ccccc1)c1ccc(Oc2ccccc2)cc1 |
| 0.41 | O=S(=O)(Nc1ccc(Oc2ccccc2)cc1)c1ccc(Cl)c(Cl)c1 |
| 0.51 | CC(C)c1ccc(NS(=O)(=O)c2cccc(Cl)c2)cc1 |
| 2.2 | CS(=O)(=O)Nc1ccc(Oc2ccccc2)cc1 |
| 2.2 | O=S(=O)(c1cccc(Cl)c1)N(Cc1ccccc1)c1ccc(Oc2ccccc2)cc1 |
| 6 | O=C(c1ccccc1)c1ccc(NS(=O)(=O)c2cccc(Cl)c2)cc1 |
| 0.19 | O=S(=O)(Nc1ccc(Oc2ccccc2)cc1)c1cccc2ccccc12 |
| 2 | COc1cccc(S(=O)(=O)Nc2ccc(Oc3ccc(O)cc3)c(C)c2)c1 |
| 2.2 | O=S(=O)(c1ccccc1Cl)N(Cc1ccccc1)c1ccc(Oc2ccccc2)cc1 |
| 0.37 | COc1cccc(Oc2ccc(NS(=O)(=O)c3cccc(OC)c3)cc2)c1 |

What follows are compounds tested against T1, Progesterone receptor (assay: Displacement of [1,2,6,7-3H]-PG from recombinant human GST-tagged PR-LBD (657 to 933 residues) expressed in baculovirus infected insect cells measured after 24 hrs by liquid scintillation counting method).

| SMILES | IC50 [µM] |
| --- | --- |
| O=S(=O)(Nc1ccc(Oc2ccccc2)cc1)c1cccc(Cl)c1 | 0.062 |
| O=[N+]([O-])c1cccc(S(=O)(=O)Nc2ccc(Oc3ccccc3)cc2)c1 | 0.14 |
| O=S(=O)(Nc1ccc(Oc2ccccc2)cc1)c1cccc(C(F)(F)F)c1 | 0.04 |
| O=S(=O)(Nc1ccc(Oc2ccccc2)cc1)c1cccc(Br)c1 | 0.047 |

The remaining lines, values ahead:

| IC50 [µM] | SMILES |
| --- | --- |
| 0.31 | O=S(=O)(Nc1ccc(Oc2ccccc2)cc1)c1cccc(F)c1 |
| 0.11 | O=S(=O)(Nc1ccc(-c2ccccc2)cc1)c1cccc(Cl)c1 |
| > 10 | O=C(c1ccccc1)c1ccc(NS(=O)(=O)c2cccc(Cl)c2)cc1 |

These compounds were tested against T2, Progesterone receptor (Homo sapiens) (UniProt P06401) (assay: Antagonist activity at progesterone receptor in human T47D cells assessed as suppression of P4-induced Na/K-ATPase-beta1 expression level at 1 and 10 uM measured after 16 hrs by Western blot analysis).
T2 sequence (whole entry): T1 sequence (P06401 whole entry)
Assay type: cell-based

| inhibition | SMILES |
| --- | --- |
| Active | O=S(=O)(Nc1ccc(Oc2ccccc2)cc1)c1cccc(C(F)(F)F)c1 |

Each compound was assayed against T3, Androgen receptor (Homo sapiens, UniProt P10275) (assay: Antagonist activity at human AR expressed in HEK293 cells measured after 24 hrs by luciferase reporter gene assay).
T3 sequence (P10275 whole entry): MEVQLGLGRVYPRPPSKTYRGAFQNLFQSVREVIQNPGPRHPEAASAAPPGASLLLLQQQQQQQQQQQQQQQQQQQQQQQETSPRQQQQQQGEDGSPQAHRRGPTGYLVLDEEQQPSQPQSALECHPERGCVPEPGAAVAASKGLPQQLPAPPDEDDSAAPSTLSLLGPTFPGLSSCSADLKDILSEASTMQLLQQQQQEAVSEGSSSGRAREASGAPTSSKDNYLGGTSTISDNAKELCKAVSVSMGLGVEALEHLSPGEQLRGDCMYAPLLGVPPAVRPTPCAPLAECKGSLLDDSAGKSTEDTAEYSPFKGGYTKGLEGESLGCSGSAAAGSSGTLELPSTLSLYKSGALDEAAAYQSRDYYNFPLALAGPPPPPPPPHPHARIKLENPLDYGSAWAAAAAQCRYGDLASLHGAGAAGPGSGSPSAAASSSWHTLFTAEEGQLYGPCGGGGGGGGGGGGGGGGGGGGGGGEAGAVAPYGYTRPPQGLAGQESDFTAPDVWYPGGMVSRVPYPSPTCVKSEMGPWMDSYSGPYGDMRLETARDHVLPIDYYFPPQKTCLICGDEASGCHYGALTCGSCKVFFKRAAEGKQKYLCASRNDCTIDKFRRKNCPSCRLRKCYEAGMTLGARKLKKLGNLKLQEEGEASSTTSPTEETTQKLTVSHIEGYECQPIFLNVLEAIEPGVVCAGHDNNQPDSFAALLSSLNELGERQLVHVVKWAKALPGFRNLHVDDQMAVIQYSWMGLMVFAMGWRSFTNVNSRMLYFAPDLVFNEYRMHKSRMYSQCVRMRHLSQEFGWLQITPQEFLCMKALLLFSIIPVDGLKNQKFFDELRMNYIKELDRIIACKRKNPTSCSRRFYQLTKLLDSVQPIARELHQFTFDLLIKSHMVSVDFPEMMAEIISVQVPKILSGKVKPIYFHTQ
Assay type: cell-based

| IC50 [µM] | SMILES |
| --- | --- |
| 5.3 | O=S(=O)(Nc1ccc(Oc2ccccc2)cc1)c1cccc(C(F)(F)F)c1 |

What follows are compounds tested against T4, Glucocorticoid receptor (Homo sapiens, UniProt P04150) (assay: Antagonist activity at human glucocorticoid receptor-alpha expressed in HEK293 cells measured after 24 hrs by luciferase reporter gene assay).
T4 sequence (P04150 whole entry): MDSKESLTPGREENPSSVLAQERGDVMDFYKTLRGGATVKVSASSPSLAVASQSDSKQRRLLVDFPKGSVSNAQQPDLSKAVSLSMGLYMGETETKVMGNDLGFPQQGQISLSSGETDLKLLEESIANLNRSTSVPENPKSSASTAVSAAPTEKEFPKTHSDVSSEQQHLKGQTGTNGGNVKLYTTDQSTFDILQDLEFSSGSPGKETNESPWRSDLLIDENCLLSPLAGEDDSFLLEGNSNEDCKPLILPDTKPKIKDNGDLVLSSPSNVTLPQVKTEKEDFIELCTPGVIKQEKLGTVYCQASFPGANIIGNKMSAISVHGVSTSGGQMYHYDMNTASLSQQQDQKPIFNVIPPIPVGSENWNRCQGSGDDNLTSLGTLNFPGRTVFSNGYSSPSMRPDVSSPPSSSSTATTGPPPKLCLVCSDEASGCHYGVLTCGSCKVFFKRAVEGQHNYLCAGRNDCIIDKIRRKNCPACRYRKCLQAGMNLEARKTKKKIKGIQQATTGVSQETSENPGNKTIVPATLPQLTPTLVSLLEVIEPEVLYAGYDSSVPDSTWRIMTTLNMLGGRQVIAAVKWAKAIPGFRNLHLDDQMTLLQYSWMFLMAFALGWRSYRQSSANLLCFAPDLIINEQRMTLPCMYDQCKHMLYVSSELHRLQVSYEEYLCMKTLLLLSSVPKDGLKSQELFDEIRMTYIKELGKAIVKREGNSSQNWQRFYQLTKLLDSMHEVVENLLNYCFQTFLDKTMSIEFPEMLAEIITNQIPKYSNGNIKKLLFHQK
Assay type: cell-based

| IC50 [µM] | SMILES |
| --- | --- |
| 12 | O=S(=O)(Nc1ccc(Oc2ccccc2)cc1)c1cccc(C(F)(F)F)c1 |

The compounds below were run against T5, Estrogen receptor (Homo sapiens, UniProt P03372) (assay: Antagonist activity at human Gal4-tagged estrogen receptor-alpha LBD expressed in HEK293 cells measured after 24 hrs by luciferase reporter gene assay).
T5 sequence (P03372 whole entry): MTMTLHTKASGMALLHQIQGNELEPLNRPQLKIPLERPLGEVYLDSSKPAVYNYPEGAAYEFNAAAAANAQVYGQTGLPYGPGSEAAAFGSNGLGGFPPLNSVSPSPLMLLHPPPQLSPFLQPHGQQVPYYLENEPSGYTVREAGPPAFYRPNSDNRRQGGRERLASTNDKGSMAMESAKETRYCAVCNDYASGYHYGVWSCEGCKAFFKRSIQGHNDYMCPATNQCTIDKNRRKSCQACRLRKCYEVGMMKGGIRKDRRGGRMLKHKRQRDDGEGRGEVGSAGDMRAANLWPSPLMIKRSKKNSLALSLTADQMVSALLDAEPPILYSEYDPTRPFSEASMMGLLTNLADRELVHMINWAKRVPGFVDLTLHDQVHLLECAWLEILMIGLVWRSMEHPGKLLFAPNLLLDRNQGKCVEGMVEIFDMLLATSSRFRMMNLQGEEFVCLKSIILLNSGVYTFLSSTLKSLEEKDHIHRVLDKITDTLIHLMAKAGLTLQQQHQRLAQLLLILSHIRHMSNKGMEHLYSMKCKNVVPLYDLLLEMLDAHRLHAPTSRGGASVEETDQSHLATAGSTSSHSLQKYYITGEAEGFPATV
Assay type: cell-based

| IC50 [µM] | SMILES |
| --- | --- |
| > 30 | O=S(=O)(Nc1ccc(Oc2ccccc2)cc1)c1cccc(C(F)(F)F)c1 |

These compounds were tested against Estrogen receptor beta (Homo sapiens, UniProt Q92731) (assay: Antagonist activity at human Gal4-tagged estrogen receptor-beta LBD expressed in HEK293 cells measured after 24 hrs by luciferase reporter gene assay).
Assay type: cell-based

Sequence of Estrogen receptor beta (Q92731 whole entry, the tested form may be a part): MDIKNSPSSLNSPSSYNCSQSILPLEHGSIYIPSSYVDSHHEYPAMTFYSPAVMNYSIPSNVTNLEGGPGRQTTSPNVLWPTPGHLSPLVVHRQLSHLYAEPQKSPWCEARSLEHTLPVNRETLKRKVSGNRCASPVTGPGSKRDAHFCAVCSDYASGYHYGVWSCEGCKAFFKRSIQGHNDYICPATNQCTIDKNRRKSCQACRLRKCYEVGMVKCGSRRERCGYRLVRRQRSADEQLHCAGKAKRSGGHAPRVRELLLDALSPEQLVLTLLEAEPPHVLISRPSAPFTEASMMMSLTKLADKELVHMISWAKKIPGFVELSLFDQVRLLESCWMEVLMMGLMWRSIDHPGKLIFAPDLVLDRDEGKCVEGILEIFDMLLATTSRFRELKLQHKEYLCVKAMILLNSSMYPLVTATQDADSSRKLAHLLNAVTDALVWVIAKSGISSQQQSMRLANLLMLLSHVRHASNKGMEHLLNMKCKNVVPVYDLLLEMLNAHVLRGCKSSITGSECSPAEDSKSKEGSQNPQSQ

| IC50 [µM] | SMILES |
| --- | --- |
| 23 | O=S(=O)(Nc1ccc(Oc2ccccc2)cc1)c1cccc(C(F)(F)F)c1 |
